{"source": "ChEMBL document CHEMBL1201861", "about": "“Genomics of Drug Sensitity in Cancer screening data, Wellcome Trust Sanger Institute”", "assay_in_all_cases": "cells", "key": {"FaDu": {"system": "FaDu", "format": "functional, cell-based, Homo sapiens", "conditions": "Homo sapiens, FaDu", "description": "SANGER: Inhibition of human FADU cell growth in a cell viability assay."}, "EM-2": {"system": "EM-2", "format": "functional, cell-based", "conditions": "Homo sapiens", "description": "SANGER: Inhibition of human EM-2 cell growth in a cell viability assay."}, "COLO-824": {"system": "COLO-824", "format": "functional, cell-based, Homo sapiens", "conditions": "Homo sapiens, COLO-824", "description": "SANGER: Inhibition of human COLO-824 cell growth in a cell viability assay."}, "HT": {"system": "HT", "format": "functional, cell-based", "conditions": "Homo sapiens", "description": "SANGER: Inhibition of human HT cell growth in a cell viability assay."}, "CW-2": {"system": "CW-2", "format": "functional, cell-based, Homo sapiens", "conditions": "Homo sapiens, CW-2", "description": "SANGER: Inhibition of human CW-2 cell growth in a cell viability assay."}, "LS-513": {"system": "LS-513", "format": "functional, cell-based, Homo sapiens", "conditions": "Homo sapiens, LS-513", "description": "SANGER: Inhibition of human LS-513 cell growth in a cell viability assay."}, "MPP-89": {"system": "MPP-89", "format": "functional, cell-based, Homo sapiens", "conditions": "Homo sapiens, MPP-89", "description": "SANGER: Inhibition of human MPP-89 cell growth in a cell viability assay."}, "AGS": {"system": "AGS", "format": "functional, cell-based, Homo sapiens", "conditions": "Homo sapiens, AGS", "description": "SANGER: Inhibition of human AGS cell growth in a cell viability assay."}, "Detroit 562": {"system": "Detroit 562", "format": "functional, cell-based, Homo sapiens", "conditions": "Homo sapiens, Detroit 562", "description": "SANGER: Inhibition of human Detroit562 cell growth in a cell viability assay."}, "LU-139": {"system": "LU-139", "format": "functional, cell-based", "conditions": "Homo sapiens", "description": "SANGER: Inhibition of human LU-139 cell growth in a cell viability assay."}, "COLO-678": {"system": "COLO-678", "format": "functional, cell-based, Homo sapiens", "conditions": "Homo sapiens, COLO-678", "description": "SANGER: Inhibition of human COLO-678 cell growth in a cell viability assay."}, "EW-13": {"system": "EW-13", "format": "functional, cell-based", "conditions": "Homo sapiens", "description": "SANGER: Inhibition of human EW-13 cell growth in a cell viability assay."}, "GT3TKB": {"system": "GT3TKB", "format": "functional, cell-based, Homo sapiens", "conditions": "Homo sapiens, GT3TKB", "description": "SANGER: Inhibition of human GT3TKB cell growth in a cell viability assay."}, "NCI-H2228": {"system": "NCI-H2228", "format": "functional, cell-based, Homo sapiens", "conditions": "Homo sapiens, NCI-H2228", "description": "SANGER: Inhibition of human NCI-H2228 cell growth in a cell viability assay."}, "Ca-Ski": {"system": "Ca-Ski", "format": "functional, cell-based", "conditions": "Homo sapiens", "description": "SANGER: Inhibition of human Ca-Ski cell growth in a cell viability assay."}, "AM-38": {"system": "AM-38", "format": "functional, cell-based, Homo sapiens", "conditions": "Homo sapiens, AM-38", "description": "SANGER: Inhibition of human AM-38 cell growth in a cell viability assay."}, "LCLC-97TM1": {"system": "LCLC-97TM1", "format": "functional, cell-based, Homo sapiens", "conditions": "Homo sapiens, LCLC-97TM1", "description": "SANGER: Inhibition of human LCLC-97TM1 cell growth in a cell viability assay."}, "TE-12": {"system": "TE-12", "format": "functional, cell-based", "conditions": "Homo sapiens", "description": "SANGER: Inhibition of human TE-12 cell growth in a cell viability assay."}, "LS-411N": {"system": "LS-411N", "format": "functional, cell-based, Homo sapiens", "conditions": "Homo sapiens, LS-411N"}, "SW837": {"system": "SW837", "format": "functional, cell-based, Homo sapiens", "conditions": "Homo sapiens, SW837", "description": "SANGER: Inhibition of human SW837 cell growth in a cell viability assay."}, "NCI-H650": {"system": "NCI-H650", "format": "functional, cell-based, Homo sapiens", "conditions": "Homo sapiens, NCI-H650", "description": "SANGER: Inhibition of human NCI-H650 cell growth in a cell viability assay."}, "HEC-1": {"system": "HEC-1", "format": "functional, cell-based, Homo sapiens", "conditions": "Homo sapiens, HEC-1", "description": "SANGER: Inhibition of human HEC-1 cell growth in a cell viability assay."}, "P12-Ichikawa": {"system": "P12-Ichikawa", "format": "functional, cell-based", "conditions": "Homo sapiens"}, "ONS-76": {"system": "ONS-76", "format": "functional, cell-based, Homo sapiens", "conditions": "Homo sapiens, ONS-76", "description": "SANGER: Inhibition of human ONS-76 cell growth in a cell viability assay."}, "NEC8": {"system": "NEC8", "format": "functional, cell-based, Homo sapiens", "conditions": "Homo sapiens, NEC8", "description": "SANGER: Inhibition of human NEC8 cell growth in a cell viability assay."}, "NCI-H2126": {"system": "NCI-H2126", "format": "functional, cell-based, Homo sapiens", "conditions": "Homo sapiens, NCI-H2126", "description": "SANGER: Inhibition of human NCI-H2126 cell growth in a cell viability assay."}, "HH": {"system": "HH", "format": "functional, cell-based", "conditions": "Homo sapiens", "description": "SANGER: Inhibition of human HH cell growth in a cell viability assay."}, "PC-3": {"system": "PC-3", "format": "functional, cell-based, Homo sapiens", "conditions": "Homo sapiens, PC-3", "description": "SANGER: Inhibition of human PC-3 cell growth in a cell viability assay."}, "TE-9": {"system": "TE-9", "format": "functional, cell-based, Homo sapiens", "conditions": "Homo sapiens, TE-9", "description": "SANGER: Inhibition of human TE-9 cell growth in a cell viability assay."}, "NCI-H2087": {"system": "NCI-H2087", "format": "functional, cell-based, Homo sapiens", "conditions": "Homo sapiens, NCI-H2087", "description": "SANGER: Inhibition of human NCI-H2087 cell growth in a cell viability assay."}, "PA-1": {"system": "PA-1", "format": "functional, cell-based, Homo sapiens", "conditions": "Homo sapiens, PA-1", "description": "SANGER: Inhibition of human PA-1 cell growth in a cell viability assay."}, "Capan-2": {"system": "Capan-2", "format": "functional, cell-based, Homo sapiens", "conditions": "Homo sapiens, Capan-2", "description": "SANGER: Inhibition of human Capan-2 cell growth in a cell viability assay."}, "KU-19-19": {"system": "KU-19-19", "format": "functional, cell-based, Homo sapiens", "conditions": "Homo sapiens, KU-19-19", "description": "SANGER: Inhibition of human KU-19-19 cell growth in a cell viability assay."}, "SK-HEP1": {"system": "SK-HEP1", "format": "functional, cell-based, Homo sapiens, SK-HEP-1", "conditions": "Homo sapiens, SK-HEP1", "description": "SANGER: Inhibition of human SK-HEP-1 cell growth in a cell viability assay."}, "LB2518-MEL": {"system": "LB2518-MEL", "format": "functional, cell-based, Homo sapiens", "conditions": "Homo sapiens, LB2518-MEL", "description": "SANGER: Inhibition of human LB2518-MEL cell growth in a cell viability assay."}, "PSN1": {"system": "PSN1", "format": "functional, cell-based, Homo sapiens", "conditions": "Homo sapiens, PSN1", "description": "SANGER: Inhibition of human PSN1 cell growth in a cell viability assay."}, "HT-3": {"system": "HT-3", "format": "functional, cell-based, Homo sapiens", "conditions": "Homo sapiens, HT-3", "description": "SANGER: Inhibition of human HT-3 cell growth in a cell viability assay."}, "A-375": {"system": "A-375", "format": "functional, cell-based, Homo sapiens", "conditions": "Homo sapiens, A-375", "description": "SANGER: Inhibition of human A375 cell growth in a cell viability assay."}, "KYSE-520 cell line": {"system": "KYSE-520 cell line", "format": "functional, cell-based, Homo sapiens", "conditions": "Homo sapiens, KYSE-520", "description": "SANGER: Inhibition of human KYSE-520 cell growth in a cell viability assay."}, "RERF-LC-MS": {"system": "RERF-LC-MS", "format": "functional, cell-based, Homo sapiens", "conditions": "Homo sapiens, RERF-LC-MS", "description": "SANGER: Inhibition of human RERF-LC-MS cell growth in a cell viability assay."}, "HEL": {"system": "HEL", "format": "functional, cell-based, Homo sapiens", "conditions": "Homo sapiens, HEL", "description": "SANGER: Inhibition of human HEL cell growth in a cell viability assay."}, "A3-KAW": {"system": "A3-KAW", "format": "functional, cell-based", "conditions": "Homo sapiens", "description": "SANGER: Inhibition of human A3-KAW cell growth in a cell viability assay."}, "LAMA-84": {"system": "LAMA-84", "format": "functional, cell-based", "conditions": "Homo sapiens", "description": "SANGER: Inhibition of human LAMA-84 cell growth in a cell viability assay."}, "NCI-H720": {"system": "NCI-H720", "format": "functional, cell-based", "conditions": "Homo sapiens", "description": "SANGER: Inhibition of human NCI-H720 cell growth in a cell viability assay."}, "Ca9-22": {"system": "Ca9-22", "format": "functional, cell-based, Homo sapiens", "conditions": "Homo sapiens, Ca9-22", "description": "SANGER: Inhibition of human Ca9-22 cell growth in a cell viability assay."}, "A-431": {"system": "A-431", "format": "functional, cell-based, Homo sapiens", "conditions": "Homo sapiens, A-431", "description": "SANGER: Inhibition of human A431 cell growth in a cell viability assay."}, "HPAF-II": {"system": "HPAF-II", "format": "functional, cell-based, Homo sapiens", "conditions": "Homo sapiens, HPAF-II", "description": "SANGER: Inhibition of human HPAF-II cell growth in a cell viability assay."}, "SF-295": {"system": "SF-295", "format": "functional, cell-based, Homo sapiens", "conditions": "Homo sapiens, SF-295; read-out: IC50", "description": "SANGER: Inhibition of human SF295 cell growth in a cell viability assay."}, "J82": {"system": "J82", "format": "functional, cell-based", "conditions": "Homo sapiens", "description": "SANGER: Inhibition of human J82 cell growth in a cell viability assay."}, "CAL-85-1": {"system": "CAL-85-1", "format": "functional, cell-based", "conditions": "Homo sapiens", "description": "SANGER: Inhibition of human CAL-85-1 cell growth in a cell viability assay."}, "NCI-H747": {"system": "NCI-H747", "format": "functional, cell-based", "conditions": "Homo sapiens", "description": "SANGER: Inhibition of human NCI-H747 cell growth in a cell viability assay."}, "MDA-MB-415": {"system": "MDA-MB-415", "format": "functional, cell-based", "conditions": "Homo sapiens"}, "NOS-1": {"system": "NOS-1", "format": "functional, cell-based, Homo sapiens", "conditions": "Homo sapiens, NOS-1", "description": "SANGER: Inhibition of human NOS-1 cell growth in a cell viability assay."}}}
{"smiles": "CCC1=C[C@@H]2CN(C1)Cc1c([nH]c3ccccc13)[C@@](C(=O)OC)(c1cc3c(cc1OC)N(C)[C@H]1[C@@](O)(C(=O)OC)[C@H](OC(C)=O)[C@]4(CC)C=CCN5CC[C@]31[C@@H]54)C2", "note": "[VINORELBINE]", "values": [{"measurement": "IC50", "setting": "FaDu", "result": 0.0485, "unit": "µM"}, {"measurement": "IC50", "setting": "EM-2", "result": 0.0448, "unit": "µM"}, {"measurement": "IC50", "setting": "COLO-824", "result": 0.0472, "unit": "µM"}, {"measurement": "IC50", "setting": "HT", "result": 0.0216, "unit": "µM"}, {"measurement": "IC50", "setting": "CW-2", "result": "> 0.064", "unit": "µM"}, {"measurement": "IC50", "setting": "LS-513", "result": "> 0.064", "unit": "µM"}, {"measurement": "IC50", "setting": "MPP-89", "result": "> 0.064", "unit": "µM"}, {"measurement": "IC50", "setting": "AGS", "result": 0.00646, "unit": "µM"}, {"measurement": "IC50", "setting": "Detroit 562", "result": 0.00755, "unit": "µM"}, {"measurement": "IC50", "setting": "LU-139", "result": 0.0529, "unit": "µM"}, {"measurement": "IC50", "setting": "COLO-678", "result": "> 0.064", "unit": "µM"}, {"measurement": "IC50", "setting": "EW-13", "result": 0.00662, "unit": "µM"}, {"measurement": "IC50", "setting": "GT3TKB", "result": 0.000748, "unit": "µM"}, {"measurement": "IC50", "setting": "NCI-H2228", "result": 0.0129, "unit": "µM"}, {"measurement": "IC50", "setting": "Ca-Ski", "result": 0.0191, "unit": "µM"}, {"measurement": "IC50", "setting": "AM-38", "result": 0.0335, "unit": "µM"}, {"measurement": "IC50", "setting": "LCLC-97TM1", "result": 0.00156, "unit": "µM"}, {"measurement": "IC50", "setting": "TE-12", "result": "> 0.064", "unit": "µM"}, {"measurement": "IC50", "setting": "LS-411N", "result": 0.00317, "unit": "µM"}, {"measurement": "IC50", "setting": "SW837", "result": "> 0.064", "unit": "µM"}, {"measurement": "IC50", "setting": "NCI-H650", "result": 0.0161, "unit": "µM"}, {"measurement": "IC50", "setting": "HEC-1", "result": 0.0227, "unit": "µM"}, {"measurement": "IC50", "setting": "P12-Ichikawa", "result": 0.0252, "unit": "µM"}, {"measurement": "IC50", "setting": "ONS-76", "result": 0.0033, "unit": "µM"}, {"measurement": "IC50", "setting": "NEC8", "result": 0.0139, "unit": "µM"}, {"measurement": "IC50", "setting": "NCI-H2126", "result": 0.0293, "unit": "µM"}, {"measurement": "IC50", "setting": "HH", "result": 0.00888, "unit": "µM"}, {"measurement": "IC50", "setting": "PC-3", "result": "> 0.064", "unit": "µM"}, {"measurement": "IC50", "setting": "TE-9", "result": 0.00108, "unit": "µM"}, {"measurement": "IC50", "setting": "NCI-H2087", "result": 0.00822, "unit": "µM"}, {"measurement": "IC50", "setting": "PA-1", "result": 0.00312, "unit": "µM"}, {"measurement": "IC50", "setting": "Capan-2", "result": 0.0304, "unit": "µM"}, {"measurement": "IC50", "setting": "KU-19-19", "result": "> 0.064", "unit": "µM"}, {"measurement": "IC50", "setting": "SK-HEP1", "result": 0.00452, "unit": "µM"}, {"measurement": "IC50", "setting": "LB2518-MEL", "result": "> 0.064", "unit": "µM"}, {"measurement": "IC50", "setting": "PSN1", "result": "> 0.064", "unit": "µM"}, {"measurement": "IC50", "setting": "HT-3", "result": "> 0.064", "unit": "µM"}, {"measurement": "IC50", "setting": "A-375", "result": 0.0382, "unit": "µM"}, {"measurement": "IC50", "setting": "KYSE-520 cell line", "result": 0.0178, "unit": "µM"}, {"measurement": "IC50", "setting": "RERF-LC-MS", "result": 0.0102, "unit": "µM"}, {"measurement": "IC50", "setting": "HEL", "result": 0.0383, "unit": "µM"}, {"measurement": "IC50", "setting": "A3-KAW", "result": 0.0216, "unit": "µM"}, {"measurement": "IC50", "setting": "LAMA-84", "result": 0.0458, "unit": "µM"}, {"measurement": "IC50", "setting": "NCI-H720", "result": "> 0.064", "unit": "µM"}, {"measurement": "IC50", "setting": "Ca9-22", "result": 0.0103, "unit": "µM"}, {"measurement": "IC50", "setting": "A-431", "result": 0.0029, "unit": "µM"}, {"measurement": "IC50", "setting": "HPAF-II", "result": 0.0166, "unit": "µM"}, {"measurement": "IC50", "setting": "SF-295", "result": 0.012, "unit": "µM"}, {"measurement": "IC50", "setting": "J82", "result": "> 0.064", "unit": "µM"}, {"measurement": "IC50", "setting": "CAL-85-1", "result": 0.0049, "unit": "µM"}, {"measurement": "IC50", "setting": "NCI-H747", "result": "> 0.064", "unit": "µM"}, {"measurement": "IC50", "setting": "MDA-MB-415", "result": 0.0241, "unit": "µM"}, {"measurement": "IC50", "setting": "NOS-1", "result": 0.0413, "unit": "µM"}]}
